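Five concentrations, 48 hours, 96-well plates. TGI denotes the concentration required for complete inhibition of growth.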
Experiments:
Assay in all cases: NCI anticancer screen, dose series, 48 h
[1] = system: 786-0 renal
[2] = system: A498 renal
[3] = system: A549 NSCLC
[4] = system: ACHN renal
[5] = system: BT-549 breast
[6] = system: CAKI-1 renal
[7] = system: CCRF-CEM leukemia
[8] = system: COLO 205 colon
[9] = system: DU-145 prostate
[10] = system: EKVX NSCLC
[11] = system: HCC-2998 colon
[12] = system: HCT-116 colon
[13] = system: HCT-15 colon
[14] = system: HOP-62 NSCLC
[15] = system: HOP-92 NSCLC
[16] = system: HT29 colon
[17] = system: IGROV1 ovarian
[18] = system: K-562 leukemia
[19] = system: KM12 colon
[20] = system: LOX IMVI melanoma
[21] = system: M14 melanoma
[22] = system: MALME-3M melanoma
[23] = system: MCF7 breast
[24] = system: MDA-MB-231 breast
[25] = system: MDA-MB-435
[26] = system: MDA-N
[27] = system: MOLT-4 leukemia
[28] = system: NCI-H226 lung
[29] = system: NCI-H23 lung
[30] = system: NCI-H460 lung
[31] = system: NCI-H522 lung
[32] = system: NCI/ADR-RES ovarian
[33] = system: OVCAR-3 ovarian
[34] = system: OVCAR-4 ovarian
[35] = system: OVCAR-5 ovarian
[36] = system: OVCAR-8 ovarian
[37] = system: PC-3 prostate
[38] = system: RXF 393 renal
[39] = system: SF-268 CNS
[40] = system: SF-295 CNS
[41] = system: SF-539 CNS
[42] = system: SK-MEL-2 melanoma
[43] = system: SK-MEL-28 melanoma
[44] = system: SK-OV-3 ovarian
[45] = system: SN12C renal
[46] = system: SNB-19 CNS
[47] = system: SNB-75 CNS
[48] = system: SR leukemia
[49] = system: SW-620 colon
[50] = system: T-47D breast
[51] = system: TK-10 renal
[52] = system: U251 CNS
[53] = system: UACC-257 melanoma
[54] = system: UACC-62 melanoma
[55] = system: UO-31 renal
[56] = system: HL-60(TB) leukemia
[57] = system: HS 578T breast
[58] = system: RPMI-8226 leukemia
[59] = system: SK-MEL-5 melanoma

C=C(C)CCC(O)[C@](C)(O)[C@H]1[C@H](O)C[C@@]2(C)[C@@H]3CCc4c(cc(OC5OC(CO)C(O)C(O)C5O)c(O)c4C)C3(C)C(=O)C[C@]12C (stereo partly specified)
TGI [1]: > 100 µM | TGI [2]: > 100 µM | TGI [3]: > 100 µM | TGI [4]: > 100 µM | TGI [5]: > 100 µM | TGI [6]: > 100 µM | TGI [7]: > 100 µM | TGI [8]: > 100 µM | TGI [9]: > 100 µM | TGI [10]: > 100 µM | TGI [11]: > 100 µM | TGI [12]: > 100 µM | TGI [13]: > 100 µM | TGI [14]: > 100 µM | TGI [15]: > 100 µM | TGI [16]: > 100 µM | TGI [17]: > 100 µM | TGI [18]: > 100 µM | TGI [19]: > 100 µM | TGI [20]: > 100 µM | TGI [21]: > 100 µM | TGI [22]: > 100 µM | TGI [23]: > 100 µM | TGI [24]: > 100 µM | TGI [25]: > 100 µM | TGI [26]: > 100 µM | TGI [27]: > 100 µM | TGI [28]: > 100 µM | TGI [29]: > 100 µM | TGI [30]: > 100 µM | TGI [31]: > 100 µM | TGI [32]: > 100 µM | TGI [33]: > 100 µM | TGI [34]: > 100 µM | TGI [35]: > 100 µM | TGI [36]: > 100 µM | TGI [37]: > 100 µM | TGI [38]: > 100 µM | TGI [39]: > 100 µM | TGI [40]: > 100 µM | TGI [41]: > 100 µM | TGI [42]: > 100 µM | TGI [43]: > 100 µM | TGI [44]: > 100 µM | TGI [45]: > 100 µM | TGI [46]: > 100 µM | TGI [47]: > 100 µM | TGI [48]: > 100 µM | TGI [49]: > 100 µM | TGI [50]: > 100 µM | TGI [51]: > 100 µM | TGI [52]: > 100 µM | TGI [53]: > 100 µM | TGI [54]: > 100 µM | TGI [55]: > 100 µM

COc1cc2c(cc1-c1coc3cc(O)ccc3c1=O)OCO2
TGI [1]: 29.9 µM | TGI [2]: 80.5 µM | TGI [3]: 77.4 µM | TGI [4]: 40.9 µM | TGI [5]: 41.2 µM | TGI [6]: 51.1 µM | TGI [7]: > 100 µM | TGI [8]: > 100 µM | TGI [9]: > 100 µM | TGI [10]: > 100 µM | TGI [11]: > 100 µM | TGI [12]: 37.1 µM | TGI [13]: 35.6 µM | TGI [56]: > 100 µM | TGI [14]: 33.3 µM | TGI [15]: 67.6 µM | TGI [57]: 58.2 µM | TGI [16]: > 100 µM | TGI [17]: 53.7 µM | TGI [18]: > 100 µM | TGI [19]: > 100 µM | TGI [20]: > 100 µM | TGI [21]: > 100 µM | TGI [23]: 90.9 µM | TGI [25]: > 100 µM | TGI [26]: > 100 µM | TGI [27]: > 100 µM | TGI [28]: 40.2 µM | TGI [29]: 40.3 µM | TGI [30]: 32 µM | TGI [31]: 36.2 µM | TGI [32]: 48.4 µM | TGI [33]: > 100 µM | TGI [34]: 44.3 µM | TGI [35]: > 100 µM | TGI [36]: 40.1 µM | TGI [37]: > 100 µM | TGI [58]: 77.5 µM | TGI [39]: 43.6 µM | TGI [40]: 38.9 µM | TGI [41]: 48.6 µM | TGI [42]: > 100 µM | TGI [43]: > 100 µM | TGI [59]: > 100 µM | TGI [44]: 37.3 µM | TGI [45]: 67.2 µM | TGI [46]: 43.1 µM | TGI [47]: 46.1 µM | TGI [49]: > 100 µM | TGI [50]: 65.6 µM | TGI [51]: 43.9 µM | TGI [52]: 45.9 µM | TGI [53]: 85.1 µM | TGI [54]: 63.9 µM | TGI [55]: 58.4 µM

COc1ccc(CNc2nc3cc(C(F)(F)F)ccc3nc2C(=O)O)cc1
TGI [1]: 63.2 µM | TGI [2]: 53 µM | TGI [3]: 95.9 µM | TGI [4]: > 100 µM | TGI [5]: 69.6 µM | TGI [6]: > 100 µM | TGI [7]: > 100 µM | TGI [8]: 39.7 µM | TGI [9]: > 100 µM | TGI [10]: 78.6 µM | TGI [11]: 71.3 µM | TGI [12]: 41 µM | TGI [13]: 69.3 µM | TGI [14]: 55.5 µM | TGI [15]: 62.9 µM | TGI [16]: 73.9 µM | TGI [17]: > 100 µM | TGI [18]: 61.3 µM | TGI [19]: 63.6 µM | TGI [20]: 44.3 µM | TGI [21]: 58.1 µM | TGI [23]: 64.9 µM | TGI [24]: > 100 µM | TGI [25]: 50.6 µM | TGI [26]: 74.6 µM | TGI [27]: 52.6 µM | TGI [28]: > 100 µM | TGI [29]: 76.3 µM | TGI [30]: > 100 µM | TGI [32]: 58.1 µM | TGI [33]: 34.1 µM | TGI [34]: > 100 µM | TGI [35]: 94.7 µM | TGI [36]: > 100 µM | TGI [37]: > 100 µM | TGI [58]: > 100 µM | TGI [40]: > 100 µM | TGI [41]: 49.2 µM | TGI [42]: 62.2 µM | TGI [43]: > 100 µM | TGI [59]: 32.1 µM | TGI [44]: > 100 µM | TGI [45]: 62.6 µM | TGI [46]: > 100 µM | TGI [47]: > 100 µM | TGI [48]: 56.1 µM | TGI [49]: > 100 µM | TGI [50]: > 100 µM | TGI [52]: > 100 µM | TGI [53]: > 100 µM | TGI [54]: 49.8 µM | TGI [55]: 42.5 µM

COc1cc(C(c2ccc3c(c2)OCO3)C2SCCCS2)cc(OC)c1OC (stereo unspecified)
TGI [1]: 9.68 µM | TGI [2]: 5.11 µM | TGI [3]: 53.3 µM | TGI [4]: > 100 µM | TGI [5]: > 100 µM | TGI [6]: 20.1 µM | TGI [7]: 3.56 µM | TGI [8]: 3.08 µM | TGI [9]: 8.59 µM | TGI [10]: 19.6 µM | TGI [11]: 8.8 µM | TGI [12]: 10.6 µM | TGI [13]: 6.58 µM | TGI [14]: > 100 µM | TGI [57]: 7.97 µM | TGI [16]: 3.42 µM | TGI [17]: 8.17 µM | TGI [18]: 4.73 µM | TGI [19]: 26 µM | TGI [21]: 95.5 µM | TGI [22]: > 100 µM | TGI [23]: 10.1 µM | TGI [24]: 6.21 µM | TGI [26]: 1.77 µM | TGI [27]: 8.29 µM | TGI [28]: 7.11 µM | TGI [29]: 51.8 µM | TGI [30]: 2.92 µM | TGI [31]: 5.87 µM | TGI [32]: 6.11 µM | TGI [33]: 27.4 µM | TGI [34]: 75.8 µM | TGI [35]: 66.2 µM | TGI [36]: 64.8 µM | TGI [37]: > 100 µM | TGI [58]: 7.77 µM | TGI [38]: 4.47 µM | TGI [39]: > 100 µM | TGI [40]: 4.66 µM | TGI [42]: > 100 µM | TGI [43]: > 100 µM | TGI [59]: 9.21 µM | TGI [44]: > 100 µM | TGI [45]: 8.99 µM | TGI [46]: 5.41 µM | TGI [47]: 5.83 µM | TGI [48]: 2.07 µM | TGI [49]: 33 µM | TGI [50]: > 100 µM | TGI [51]: > 100 µM | TGI [52]: 21.5 µM | TGI [53]: > 100 µM | TGI [54]: 28.2 µM | TGI [55]: > 100 µM
